Each block holds one molecule with its values, some of them ahead of it.
System: PDC 899932-113-R3-J6 complex spheroid viability
Assay: Anticancer human tumor 899932-113-R3-J6-PDC patient-derived melanoma cell line growth inhibition [RAS]
Settings: for IC50: curve of first compound; for viability, T/C: stronger effect = lower value
Procedure, shortened: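 Tumour cells grown as complex spheroids with HUVEC endothelial cells and mesenchymal stem cells, treated with RAS pathway inhibitor combinations. Each agent spans half-log steps from near clinical Cmax, or 10 microM where Cmax is unknown.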

[1] = second compound 0.000949 µM, first compound 0.0316 µM
[2] = second compound 0.000949 µM, first compound 0.1 µM
[3] = second compound 0.000949 µM, first compound 0.316 µM
[4] = second compound 0.000949 µM, first compound 1 µM
[5] = second compound 0.003 µM, first compound 0.0316 µM
[6] = second compound 0.003 µM, first compound 0.1 µM
[7] = second compound 0.003 µM, first compound 0.316 µM
[8] = second compound 0.003 µM, first compound 1 µM
[9] = second compound 0.00949 µM, first compound 0.0316 µM
[10] = second compound 0.00949 µM, first compound 0.1 µM
[11] = second compound 0.00949 µM, first compound 0.316 µM
[12] = second compound 0.00949 µM, first compound 1 µM
[13] = second compound 0.03 µM, first compound 0.0316 µM
[14] = second compound 0.03 µM, first compound 0.1 µM
[15] = second compound 0.03 µM, first compound 0.316 µM
[16] = second compound 0.03 µM, first compound 1 µM
[17] = second compound 0.0949 µM, first compound 0.0316 µM
[18] = second compound 0.0949 µM, first compound 0.1 µM
[19] = second compound 0.0949 µM, first compound 0.316 µM
[20] = second compound 0.0949 µM, first compound 1 µM
[21] = second compound 0.3 µM, first compound 0.0316 µM
[22] = second compound 0.3 µM, first compound 0.1 µM
[23] = second compound 0.3 µM, first compound 0.316 µM
[24] = second compound 0.3 µM, first compound 1 µM
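Wherever viability, T/C is given: spheroids exposed to agents for seven days before readout; 100% = DMSO vehicle control wells.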

- IC50 (second compound 0.000949 µM): < 31.6 nM
- IC50 (second compound 0.003 µM): < 31.6 nM
- IC50 (second compound 0.00949 µM): < 31.6 nM
- IC50 (second compound 0.03 µM): < 31.6 nM
- IC50 (second compound 0.0949 µM): < 31.6 nM
- IC50 (second compound 0.3 µM): < 31.6 nM
SMILES: CC(=O)OC12COC1CC(O)C1(C)C(=O)C(O)C3=C(C)C(OC(=O)C(O)C(NC(=O)OC(C)(C)C)c4ccccc4)CC(O)(C(OC(=O)c4ccccc4)C21)C3(C)C (stereo unspecified) + CCn1c(-c2cccnc2C(C)OC)c2c3cc(ccc31)N1CCOC(CC(NC(=O)C(C(C)C)N(C)C(=O)C3(F)CCN(C(=O)C#CC(C)(C)N(C)C)CC3)C(=O)N3CCCC(N3)C(=O)OCC(C)(C)C2)C1
- viability, T/C [1]: 31.4%
- viability, T/C [2]: 34.3%
- viability, T/C [3]: 33%
- viability, T/C [4]: 45.6%
- viability, T/C (second compound 0.000949 µM, first compound 3.16 µM): 60.8%
- viability, T/C (second compound 0.000949 µM, first compound 10 µM): 70.1%
- viability, T/C [5]: 29.2%
- viability, T/C [6]: 37.1%
- viability, T/C [7]: 36.8%
- viability, T/C [8]: 39.7%
- viability, T/C (second compound 0.003 µM, first compound 3.16 µM): 58.7%
- viability, T/C (second compound 0.003 µM, first compound 10 µM): 68.9%
- viability, T/C [9]: 33.8%
- viability, T/C [10]: 36.6%
- viability, T/C [11]: 35.1%
- viability, T/C [12]: 48.4%
- viability, T/C (second compound 0.00949 µM, first compound 3.16 µM): 61%
- viability, T/C (second compound 0.00949 µM, first compound 10 µM): 61%
- viability, T/C [13]: 34.9%
- viability, T/C [14]: 38%
- viability, T/C [15]: 32.9%
- viability, T/C [16]: 41.7%
- viability, T/C (second compound 0.03 µM, first compound 3.16 µM): 67.3%
- viability, T/C (second compound 0.03 µM, first compound 10 µM): 67.4%
- viability, T/C [17]: 34.8%
- viability, T/C [18]: 38.4%
- viability, T/C [19]: 37.3%
- viability, T/C [20]: 52.1%
- viability, T/C (second compound 0.0949 µM, first compound 3.16 µM): 59.2%
- viability, T/C (second compound 0.0949 µM, first compound 10 µM): 65.5%
- viability, T/C [21]: 28.9%
- viability, T/C [22]: 39.4%
- viability, T/C [23]: 40.8%
- viability, T/C [24]: 44.5%
- viability, T/C (second compound 0.3 µM, first compound 3.16 µM): 64.3%
- viability, T/C (second compound 0.3 µM, first compound 10 µM): 63.1%

- IC50 (second compound 0.000949 µM): 19.5 nM
- IC50 (second compound 0.003 µM): 19.9 nM
- IC50 (second compound 0.00949 µM): 33.6 nM
- IC50 (second compound 0.03 µM): 33.6 nM
- IC50 (second compound 0.0949 µM): 15.7 nM
- IC50 (second compound 0.3 µM): 17.2 nM
SMILES: CCc1c2c(nc3ccc(O)cc13)-c1cc3c(c(=O)n1C2)COC(=O)[C@]3(O)CC + CCn1c(-c2cccnc2C(C)OC)c2c3cc(ccc31)N1CCOC(CC(NC(=O)C(C(C)C)N(C)C(=O)C3(F)CCN(C(=O)C#CC(C)(C)N(C)C)CC3)C(=O)N3CCCC(N3)C(=O)OCC(C)(C)C2)C1
- viability, T/C (second compound 0.000949 µM, first compound 0.000949 µM): 93.4%
- viability, T/C (second compound 0.000949 µM, first compound 0.003 µM): 72%
- viability, T/C (second compound 0.000949 µM, first compound 0.00949 µM): 56.4%
- viability, T/C (second compound 0.000949 µM, first compound 0.03 µM): 46.1%
- viability, T/C (second compound 0.000949 µM, first compound 0.0949 µM): 39.9%
- viability, T/C (second compound 0.000949 µM, first compound 0.3 µM): 32.3%
- viability, T/C (second compound 0.003 µM, first compound 0.000949 µM): 95.3%
- viability, T/C (second compound 0.003 µM, first compound 0.003 µM): 69.1%
- viability, T/C (second compound 0.003 µM, first compound 0.00949 µM): 57.8%
- viability, T/C (second compound 0.003 µM, first compound 0.03 µM): 46.7%
- viability, T/C (second compound 0.003 µM, first compound 0.0949 µM): 42.2%
- viability, T/C (second compound 0.003 µM, first compound 0.3 µM): 31.1%
- viability, T/C (second compound 0.00949 µM, first compound 0.000949 µM): 93.8%
- viability, T/C (second compound 0.00949 µM, first compound 0.003 µM): 78.3%
- viability, T/C (second compound 0.00949 µM, first compound 0.00949 µM): 61.4%
- viability, T/C (second compound 0.00949 µM, first compound 0.03 µM): 53.6%
- viability, T/C (second compound 0.00949 µM, first compound 0.0949 µM): 39.1%
- viability, T/C (second compound 0.00949 µM, first compound 0.3 µM): 30.8%
- viability, T/C (second compound 0.03 µM, first compound 0.000949 µM): 93.7%
- viability, T/C (second compound 0.03 µM, first compound 0.003 µM): 83.6%
- viability, T/C (second compound 0.03 µM, first compound 0.00949 µM): 59.1%
- viability, T/C (second compound 0.03 µM, first compound 0.03 µM): 52.7%
- viability, T/C (second compound 0.03 µM, first compound 0.0949 µM): 41.9%
- viability, T/C (second compound 0.03 µM, first compound 0.3 µM): 29.7%
- viability, T/C (second compound 0.0949 µM, first compound 0.000949 µM): 88.3%
- viability, T/C (second compound 0.0949 µM, first compound 0.003 µM): 66.8%
- viability, T/C (second compound 0.0949 µM, first compound 0.00949 µM): 54.1%
- viability, T/C (second compound 0.0949 µM, first compound 0.03 µM): 45.4%
- viability, T/C (second compound 0.0949 µM, first compound 0.0949 µM): 39.1%
- viability, T/C (second compound 0.0949 µM, first compound 0.3 µM): 31.5%
- viability, T/C (second compound 0.3 µM, first compound 0.000949 µM): 71.1%
- viability, T/C (second compound 0.3 µM, first compound 0.003 µM): 66.5%
- viability, T/C (second compound 0.3 µM, first compound 0.00949 µM): 52.8%
- viability, T/C (second compound 0.3 µM, first compound 0.03 µM): 42.9%
- viability, T/C (second compound 0.3 µM, first compound 0.0949 µM): 42.8%
- viability, T/C (second compound 0.3 µM, first compound 0.3 µM): 32.2%

- IC50 (second compound 0.000949 µM): 19.8 nM
- IC50 (second compound 0.003 µM): 20.7 nM
- IC50 (second compound 0.00949 µM): 20.5 nM
- IC50 (second compound 0.03 µM): 19.6 nM
- IC50 (second compound 0.0949 µM): 20.9 nM
- IC50 (second compound 0.3 µM): 18.3 nM
SMILES: Nc1ccn(C2OC(CO)C(O)C2(F)F)c(=O)n1 (stereo unspecified) + CCn1c(-c2cccnc2C(C)OC)c2c3cc(ccc31)N1CCOC(CC(NC(=O)C(C(C)C)N(C)C(=O)C3(F)CCN(C(=O)C#CC(C)(C)N(C)C)CC3)C(=O)N3CCCC(N3)C(=O)OCC(C)(C)C2)C1
- viability, T/C (second compound 0.000949 µM, first compound 0.00316 µM): 103%
- viability, T/C (second compound 0.000949 µM, first compound 0.01 µM): 71.2%
- viability, T/C [1]: 35.9%
- viability, T/C [2]: 20.9%
- viability, T/C [3]: 17.4%
- viability, T/C [4]: 19.2%
- viability, T/C (second compound 0.003 µM, first compound 0.00316 µM): 99.8%
- viability, T/C (second compound 0.003 µM, first compound 0.01 µM): 74.8%
- viability, T/C [5]: 36.3%
- viability, T/C [6]: 17.1%
- viability, T/C [7]: 15.1%
- viability, T/C [8]: 17.8%
- viability, T/C (second compound 0.00949 µM, first compound 0.00316 µM): 103%
- viability, T/C (second compound 0.00949 µM, first compound 0.01 µM): 73.7%
- viability, T/C [9]: 36.4%
- viability, T/C [10]: 19.8%
- viability, T/C [11]: 16.1%
- viability, T/C [12]: 20.6%
- viability, T/C (second compound 0.03 µM, first compound 0.00316 µM): 101%
- viability, T/C (second compound 0.03 µM, first compound 0.01 µM): 70.3%
- viability, T/C [13]: 36.4%
- viability, T/C [14]: 19.2%
- viability, T/C [15]: 19%
- viability, T/C [16]: 19.8%
- viability, T/C (second compound 0.0949 µM, first compound 0.00316 µM): 95.2%
- viability, T/C (second compound 0.0949 µM, first compound 0.01 µM): 73.4%
- viability, T/C [17]: 37.4%
- viability, T/C [18]: 20.5%
- viability, T/C [19]: 19.3%
- viability, T/C [20]: 20.1%
- viability, T/C (second compound 0.3 µM, first compound 0.00316 µM): 84.4%
- viability, T/C (second compound 0.3 µM, first compound 0.01 µM): 69.4%
- viability, T/C [21]: 32.7%
- viability, T/C [22]: 20.8%
- viability, T/C [23]: 21.6%
- viability, T/C [24]: 25.9%

Source: PubChem BioAssay AID2060895 (Molecular Pharmacology Branch, DTP, NCI, 2025)
